Literature values in patent publication US20070281983A1, “Creatine analog prodrugs, compositions and uses thereof” (XenoPort, Inc., priority 2006, published 2007).
Like-named read-outs stand apart in the source and are kept apart here.

Columns and labels:
[1] = healthy volunteers, oral creatine administration
[2] = not given; remark: listed apart in the source
[3] = animals, diet containing up to 1% cyclocreatine

For `CN(CC(=O)O)C(=N)N` [creatine, Creatine], the “overall increase in creatine phosphate levels” value (creatine supplementation, typically takes weeks) is listed as under 50%, the “duration of increases in tissue creatine phosphate levels” value (following oral creatine supplementation) is listed as over 14 days and the “increase in cerebral creatine phosphate” value [1] is listed as “about 10%”.

In the case of `CN(CC(=O)O)C(=N)NP(=O)(O)O` [creatine phosphate], the adverse side effects ([2]; patients with cardiac diseases, intravenous injection up to 8 gm/day) is given as “without adverse side effects”.

For `CN(CC(=O)O)C(=N)N.O` [creatine monohydrate], the adverse side effects ([2]; athletes and body builders, 2-3 gm/day) is given as “without adverse side effects”.

For `NC1=NCCN1CC(=O)O` [cyclocreatine], the adverse effects [3] is given as “do not exhibit adverse effects”.
